The source of these data is PMC11206507, “Unraveling the Impact of Six Pentacyclic Triterpenes Regulating Metabolic Pathways on Lung Carcinoma Cells” (Pharmaceuticals, 2024).

Entries after “also recorded” stand apart in the source; their conditions may differ.

Series [1] deals with MAPK/PI3K. Briefly: MAPK/PI3K protein expression (dual pathway activation kit, flow cytometry). On MAPK/PI3K inhibition: key: '✔' means induction; '-' means non-induction of any of the tested processes. Format: cell-based, human. The settings on record: for MAPK/PI3K expression (in words): A549, IC25, 24 h, vs untreated cells; for MAPK/PI3K inhibition: summary, NSCLC A549 cells. As to the method: We used flow cytometry to analyze several cellular mechanistic pathways in A549 cells after incubation with the triterpenes. In general, the cells were seeded in a 6-well plate at a density of 1 × 10^6 cells/mL and incubated for 24 h in supplemented DMEM. After 24 h, the A549 cells were treated with the triterpenes, following each manufacturer’s protocol. All of the following experiments were performed in a Muse® Cell Analyzer (EMD Millipore Corporation, Temecula, CA). The instrument was calibrated before each assay using the Muse® System Check Kit (Luminex MCH100101, Luminex Corporation). Each assay was run at least in two independent experiments. For each experiment, all samples were analyzed in triplicate in the instrument and the capillary line was washed after each sample run to avoid artifacts. In addition, to address the issue of cell doublets, we used the Muse® Cell Dispersal Reagent (Luminex Corporation) in all experiments. The concentration of the triterpenes in each assay was selected depending on the cellular concentration necessary to generate the gain signal in the instrument. This means that we attempted to select concentrations avoiding excessive cytotoxicity to accurately determine the respective signal from each assay.
The Muse® P13K/MAPK Dual Pathway Activation Kit (Luminex MCH200108, Luminex Corporation) was used to determine MAPK/PI3K expression. After the incubation treatment with the triterpenes (IC25) for 24 h, the A549 cells were scraped, centrifuged, and washed once with 1× PBS. Next, the fixation buffer was incubated for 10 min and then the permeabilization buffer for another 10 min. Both incubations were performed on ice. Later, the antibody cocktail containing anti-phospho-Akt and anti-phospho-ERK1/2 was incubated for 30 min. Afterward, the cell pellet was washed and suspended in fresh assay buffer for measurement.
In general terms: Flow cytometry measures light scatter and fluorescence of single cells or particles in a stream.

The subject of series [2] is A549 cells. The series can be described thus: Externalization of phosphatidylserine, Annexin V confocal microscopy. Type of series: cell-based, human. The note with it: A549, IC25, 24 h. As to the method:
Early apoptotic activity was evaluated by the externalization of PS using the Alexa Fluor® 488 Annexin V Apoptosis Reagent (Molecular Probes™) and NucBlue ReadyProbes Reagent™ (Thermo Fisher Scientific). For this assay, A549 cells were seeded in 8-well cover slip plates with a density of 1 × 10^5 cells/mL for 24 h in supplemented DMEM. Then, the A549 cells were incubated with the triterpenes (IC25) and controls for 24 h. Afterward, the cells were washed with 1× PBS and incubated with NucBlue (DAPI analog) and Annexin V for 15 min in the dark. The cells were fixed with 3.7% formaldehyde solution for 15 min, washed three times with 1× PBS, and covered with glycerol before visualization. The plates were observed by confocal microscopy using a Nikon Eclipse Ti microscope (Nikon Instruments Inc., El Segundo, CA, USA), utilizing a 20× oil objective with filter sets compatible with DAPI (Ex/Em = 405/460 nm) and Annexin V Alexa Fluor (Ex/Em = 488/525 nm). The fluorescence intensity was analyzed using the NIS-Elements Viewer program (version 5.21 64-bit) (Nikon Instruments Inc.). Each sample was analyzed in duplicate in two independent experiments. The fluorescence intensity was adjusted using untreated cells for each fluorescence channel (green and blue). Subsequently, this calibrated intensity was applied for the analysis of all treated cells.

Series [3] is described as follows: MTS/PMS cell viability, MRC5. Format: cell-based. The settings on record: human, MRC5 normal lung fibroblast cells. As to the method: The 50% inhibitory concentration (IC50) of some of these triterpenes in A549 NSCLC cells were previously determined by us. A similar procedure was performed to determine the IC50 of the triterpenes in a normal lung fibroblast cell line (MRC5). In brief, the A549 and MRC5 cells were seeded into 96-well plates at a density of 1 × 10^5 cells/mL in supplemented DMEM medium. The cells were treated with specific concentrations (A549: 5, 10, 25, 50, 75, 100, 125,150, 175, 200 μM; MRC5: 5, 10, 25, 50, 75, 100 μM) of the triterpenes and incubated for 24 h. Then, 10 uL of the MTS reagent from the CellTiter 96® Aqueous Non-Radioactive Cell Proliferation Assay (Promega G5421) was added to each well. Then, we incubated the plates at 37 °C and in a 5% CO2 atmosphere for 1 h. After incubation, the absorbance was measured at 492 nm (n = 8) in a microplate reader spectrophotometer (Thermoscientific Multiskan FC). The cell viability was calculated as follows:% Viability = (sample absorbance − sample media absorbance)/(untreated cells’ absorbance − untreated cells’ media absorbance) × 100
The cell viability data were presented by plotting the values with an average of eight measurements for each treatment (mean ± SD) in at least three independent experiments. The IC50 values were calculated with the GraphPad Prism 9 software (Prism 9; GraphPad by Dotmatics, San Diego, CA, USA) using the dose–response curve. The data were normalized by the non-linear fit of the log (drug inhibition) vs. normalized response variable slope to obtain the best fit IC50 and R-squared values.

Series [4] deals with caspase 3. The series can be described thus: Caspase 3 activity assay (Apo-ONE Caspase-3/7). Type of series: cell-based, human. The settings on record: for Caspase 3 activation (in words): A549, IC50, 24 h, vs untreated cells and CisPt. As to the method: The intrinsic apoptosis activity was evaluated by the quantification of caspase 3 enzymatic activity using the Apo-ONE® Homogeneous Caspase-3/7 Assay (Promega G7792). A549 cells were seeded in a concentration of 1 × 10^5 cells/mL into black 96-well plates with a clear bottom. […] After the completion of the incubation, 50 μL of Apo-ONE® Caspase-3/7 Reagent (1:100 rhodamine 110 bis-(N-CBZ-l-aspartyl-l-glutamyl-l-valyl-aspartic acid amide) (Z-DEVD-R110) substrate diluted in lysis buffer) was added to each well. The plate was gently mixed using a plate shaker at 150 rpm for 2 h at room temperature. Then, the fluorescence of each well was measured (Ex/Em = 485/530 nm) in the Tecan® M200 plate reader.
The caspase 3 activity experiments were performed in triplicate. All data were expressed by plotting the values with an average of three measurements for each treatment condition as the mean ± SD and analyzed with the software GraphPad Prism 9 (San Diego, CA, USA). Statistical analysis was performed using one-way analysis of variance (ANOVA) to compare the mean value of each type of treated cells versus the control (untreated cells). The statistical significance defined by the software for p values was **** < 0.0001, *** from 0.001 to 0.0001, ** from 0.001 to 0.01, * from 0.01 to 0.05, and non-significant (ns) ≥ 0.05.

`C=C(C)[C@@H]1CC[C@]2(C(=O)O)CC[C@]3(C)[C@H](CC[C@@H]4[C@@]5(C)CC[C@H](O)C(C)(C)[C@@H]5CC[C@]43C)[C@@H]12` [BeA, betulinic acid]: in series [1], the “MAPK/PI3K expression (in words)” value is “did not affect the expression of MAPK/PI3K” and the MAPK/PI3K inhibition result was “-”. Further, the “Early apoptosis, externalization of PS (in words, qualitative)” value (“Early apoptosis, externalization of PS” for short) in series [2] is on record as “lowest”. Also, in series [3], the IC50 at 24 h came to 19 ± 0.4 µM.
In the case of `C=C(C)[C@@H]1CC[C@]2(CO)CC[C@]3(C)[C@H](CC[C@@H]4[C@@]5(C)CC[C@H](O)C(C)(C)[C@@H]5CC[C@]43C)[C@@H]12` [Betu, betulin], the “MAPK/PI3K expression (in words)” value in series [1] is given as “slightly inhibit the total expression of MAPK/PI3K”. Further, in series [2], the “Early apoptosis, externalization of PS” value is given as “strongest activation”. Also, in series [4], the “Caspase 3 activation (in words)” value is “higher caspase 3 activation than CisPt”. In series [3], this molecule yielded a 50% inhibitory concentration (IC50) at 24 h of 16 ± 0.5 µM.
On to `C=C(C)[C@@H]1CC[C@]2(C)CC[C@]3(C)[C@H](CC[C@@H]4[C@@]5(C)CC[C@H](O)C(C)(C)[C@@H]5CC[C@]43C)[C@@H]12` [Lupe, lupeol], for which, in series [1], the “MAPK/PI3K expression (in words)” value was “did not affect the expression of MAPK/PI3K” and the MAPK/PI3K inhibition result is “-”. Besides, the “Early apoptosis, externalization of PS” value in series [2] is reported as “lowest”. In series [4] (summary, NSCLC A549 cells), the “Caspase 3 activation” value is “-”. This molecule had an IC50 at 24 h in series [3] of 101 ± 8 µM.
With `C[C@H]1[C@H](C)CC[C@]2(C(=O)O)CC[C@]3(C)C(=CC[C@@H]4[C@@]5(C)CC[C@H](O)C(C)(C)[C@@H]5CC[C@]43C)[C@H]12` [UrA, ursolic acid], in series [1], the “MAPK/PI3K expression (in words)” value was “induced the simultaneous expression of MAPK and PI3K”; the MAPK/PI3K inhibition result is on record as “-”. Further, in series [2], the “Early apoptosis, externalization of PS” value was “strongest activation”. The “Caspase 3 activation (in words)” value in series [4] was “higher caspase 3 activation than CisPt; also recorded: highest”. Moreover, in series [3], the IC50 at 24 h is 13 ± 1 µM.

One may read the IC50 as the concentration that inhibits the measured activity by half.
